Our source for the GI50 and TGI values is PubChem BioAssay (NCI).

Among the test systems are 786-0 renal; OVCAR-8 ovarian; A498 renal; NCI-H460 lung; EKVX NSCLC; A549 NSCLC; SK-MEL-28 melanoma; SF-295 CNS; RPMI-8226 leukemia; LOX IMVI melanoma.
What all share (test): NCI-60 cell line screen, 48 h

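Five concentrations, 48 hours, 96-well plates. Abbreviation: GI50, concentration required for 50% inhibition of growth. TGI is the concentration that stops growth completely.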

For the compound `O=C1/C(=C/c2ccc(Cl)cc2)CN(C(=O)C(Cl)Cl)C/C1=C\c1ccc(Cl)cc1`, the GI50 was 0.183 µM with 786-0 renal; 0.22 µM in the assay with OVCAR-8 ovarian; 0.211 µM with A498 renal; 0.274 µM with NCI-H460 lung; 0.292 µM with EKVX NSCLC; 0.275 µM in the assay on A549 NSCLC. The GI50 in the assay with SK-MEL-28 melanoma was 0.227 µM; in the assay on SF-295 CNS it was 0.214 µM; with RPMI-8226 leukemia, 0.0302 µM; in the assay on LOX IMVI melanoma it was 0.0321 µM. In addition, the TGI with 786-0 renal is 0.371 µM; in the assay on OVCAR-8 ovarian, 1.44 µM; with A498 renal, 0.771 µM; in the assay on NCI-H460 lung it was 0.822 µM; in the assay on EKVX NSCLC, 1.03 µM; in the assay on A549 NSCLC, 1.05 µM. Also, the TGI amounted to 0.517 µM with SK-MEL-28 melanoma, 0.683 µM in the assay with SF-295 CNS, 0.169 µM in the assay with RPMI-8226 leukemia and 0.121 µM in the assay on LOX IMVI melanoma.

In the case of `Cc1ccc2sc3c(NCCCNCCO)nc4ccccc4c3c(=O)c2c1`, the GI50 is 1.7 µM in the assay on 786-0 renal; 1.74 µM in the assay on OVCAR-8 ovarian; 1.44 µM with A498 renal; 1.7 µM in the assay on NCI-H460 lung; 1.61 µM in the assay on EKVX NSCLC; 1.78 µM in the assay on A549 NSCLC. Moreover, the GI50 is 1.8 µM in the assay with SK-MEL-28 melanoma, 1.77 µM in the assay with SF-295 CNS, 1.57 µM in the assay on RPMI-8226 leukemia and 1.49 µM in the assay on LOX IMVI melanoma. The TGI in the assay on 786-0 renal turned out to be 3.23 µM; in the assay on OVCAR-8 ovarian, 3.61 µM; with A498 renal, 3.49 µM; in the assay with NCI-H460 lung, 3.24 µM; with EKVX NSCLC it was 3.08 µM; with A549 NSCLC, 3.63 µM. The TGI with SK-MEL-28 melanoma was 3.36 µM; in the assay with SF-295 CNS, 3.24 µM; with RPMI-8226 leukemia, 3.38 µM; with LOX IMVI melanoma, 2.94 µM.

For `CCOC(=O)/C=C1\Nc2ccccc2-n2nnnc21`, the TGI in the assay on 786-0 renal, with OVCAR-8 ovarian, in the assay on A498 renal, in the assay on NCI-H460 lung, with EKVX NSCLC and in the assay on A549 NSCLC was more than 100 µM in each case. In addition, the TGI with SK-MEL-28 melanoma, with SF-295 CNS, with RPMI-8226 leukemia and in the assay with LOX IMVI melanoma was more than 100 µM throughout.

Take `O=C(Cn1ccnc1[N+](=O)[O-])NCC(F)(F)C(F)(F)F`: the GI50 in the assay with 786-0 renal, in the assay on OVCAR-8 ovarian, in the assay on A498 renal, in the assay with NCI-H460 lung, in the assay with EKVX NSCLC and in the assay with A549 NSCLC was more than 100 µM throughout. Further, the GI50 with SK-MEL-28 melanoma, with SF-295 CNS, with RPMI-8226 leukemia and in the assay with LOX IMVI melanoma was more than 100 µM throughout. Further, the TGI with 786-0 renal, in the assay with OVCAR-8 ovarian, in the assay on A498 renal, in the assay on NCI-H460 lung, in the assay on EKVX NSCLC and with A549 NSCLC was more than 100 µM each time. For the same compound, the TGI with SK-MEL-28 melanoma, in the assay with SF-295 CNS, in the assay with RPMI-8226 leukemia and in the assay on LOX IMVI melanoma was more than 100 µM in each case.

With `Cc1ccc(C2=NO[C@@H]3C(=O)N(c4ccc(Cc5ccc(N6C(=O)[C@H]7C(c8ccc(C)cc8)=NO[C@H]7C6=O)cc5)cc4)C(=O)[C@H]23)cc1`, the TGI in the assay with 786-0 renal, with OVCAR-8 ovarian, with A498 renal, with NCI-H460 lung, with EKVX NSCLC and in the assay on A549 NSCLC was more than 100 µM each time. Moreover, the TGI in the assay on SK-MEL-28 melanoma, in the assay on SF-295 CNS, in the assay with RPMI-8226 leukemia and in the assay with LOX IMVI melanoma was more than 100 µM in each case.

Consider `COc1ccc2c(c1)Cc1c-2c(NN)nc2ccccc12`, for which the GI50 was 40.4 µM with 786-0 renal; 23.8 µM with OVCAR-8 ovarian; more than 100 µM in the assay with A498 renal; 14.9 µM in the assay with NCI-H460 lung; 66.1 µM with EKVX NSCLC; 33.6 µM with A549 NSCLC. The GI50 with SK-MEL-28 melanoma was 60.5 µM; with SF-295 CNS, 25.7 µM; with RPMI-8226 leukemia it was 17.6 µM; in the assay on LOX IMVI melanoma, 21.6 µM. In addition, the TGI was more than 100 µM with 786-0 renal; more than 100 µM in the assay with OVCAR-8 ovarian; more than 100 µM in the assay on A498 renal; 69 µM in the assay with NCI-H460 lung; more than 100 µM with EKVX NSCLC; more than 100 µM in the assay on A549 NSCLC. The TGI is more than 100 µM with SK-MEL-28 melanoma, more than 100 µM in the assay with SF-295 CNS, 48.3 µM in the assay with RPMI-8226 leukemia and 78.8 µM in the assay with LOX IMVI melanoma.

Regarding `CSC(=S)NNC(=O)c1ccncc1`, the TGI was 30.8 µM with 786-0 renal; 40.6 µM with OVCAR-8 ovarian; more than 100 µM with A498 renal; more than 100 µM in the assay with NCI-H460 lung; 57.6 µM in the assay on EKVX NSCLC; more than 100 µM in the assay with A549 NSCLC. The TGI in the assay on SK-MEL-28 melanoma was determined as 44 µM; with SF-295 CNS, 46.9 µM; with RPMI-8226 leukemia, 47.8 µM; in the assay with LOX IMVI melanoma it was 33.6 µM.

In the case of `CC(=O)Nc1ccc(/C=C/C(=O)c2sc(C(N)=S)nc2C)cc1`, the TGI with 786-0 renal, in the assay with OVCAR-8 ovarian, in the assay with A498 renal, in the assay on NCI-H460 lung, with EKVX NSCLC and in the assay on A549 NSCLC was more than 100 µM each time. In addition, the TGI in the assay on SK-MEL-28 melanoma, with SF-295 CNS, with RPMI-8226 leukemia and in the assay with LOX IMVI melanoma was more than 100 µM each time.

As for `Cc1cccc(N=C2c3cc([N+](=O)[O-])ccc3-c3c2cc([N+](=O)[O-])cc3[N+](=O)[O-])c1`, the GI50 is 2.52 µM in the assay with 786-0 renal; 5.88 µM in the assay with OVCAR-8 ovarian; 27.8 µM in the assay on A498 renal; 3.64 µM in the assay with NCI-H460 lung; 5.08 µM in the assay on EKVX NSCLC; 12.3 µM with A549 NSCLC. The GI50 with SK-MEL-28 melanoma is 13.3 µM; with SF-295 CNS, 25.2 µM; with RPMI-8226 leukemia it was 2.73 µM; with LOX IMVI melanoma, 1.57 µM. Also, the TGI in the assay with 786-0 renal was 5.65 µM; in the assay with OVCAR-8 ovarian, 94.1 µM; in the assay with A498 renal, more than 100 µM; in the assay on NCI-H460 lung, 14.4 µM; with EKVX NSCLC it was 19.7 µM; in the assay with A549 NSCLC, 32.9 µM. Also, the TGI with SK-MEL-28 melanoma was 31.3 µM; in the assay with SF-295 CNS, more than 100 µM; in the assay with RPMI-8226 leukemia it was 10.7 µM; in the assay on LOX IMVI melanoma it was 2.93 µM.
